Experimental data reported in publication PMC10746543, “Design principles for cyclin K molecular glue degraders” (Nature Chemical Biology, 2023).
Where “and” joins values, the source holds several entries; their conditions need not be identical. Identical values can stand only once. Like-named read-outs stand apart in the source and are kept apart here.

Tests used:
CDK12–cyclin K and DDB1 = target: T1, CDK12–cyclin K and DDB1 (Homo sapiens, UniProt Q16531+Q9NYV4, K965R); assay: TR-FRET ternary complex formation assay (compound titration); format: binding; conditions: for fold lower affinity than DS11: TR-FRET complex formation; for TR-FRET signal at compound concentration: replicate titrations
T1 construct: His6–CDK12 (a.a. 713–1,052); full-length or beta-propeller B domain deletion (ΔBPB: a.a. 396–705 deleted) constructs of His6–DDB1ΔBPB, StrepII–Avi–DDB1, or His6–Spy–DDB1; made in house; host or cells: Trichoplusia ni High Five insect cells (baculovirus)
How it was run: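 Read-out used a 70 μs delay to cut background fluorescence; TR-FRET signal taken as the 520 nm/490 nm emission ratio.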

HEK293T cells = assay: Drug sensitivity assay (CellTiter-Glo viability) with or without MLN4924 pretreatment; format: cell-based, human; conditions: Supplementary Table 2; for EC50: Homo sapiens, HEK-293T, HEK293T viability, 72 h, compound alone, read-out: Cellular assays EC50; for Toxicity rescue: MLN4924-mediated cytotoxicity rescue, 10 µM used where n.d.
How it was run: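 HEK293T–Cas9 cells at 0.15 × 10^6 ml^−1 were treated with DMSO or 100 nM MLN4924 before plating. Test drugs were added 2 h later and exposure lasted 3 days. Viability was read by CellTiter-Glo luminescence and expressed relative to DMSO controls.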

[1] = test system: cyclin K–eGFP degradation reporter; assay: Cyclin K reporter stability analysis (dual-color cyclin K–eGFP reporter); format: cell-based, human
How it was run: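 Readout was the eGFP-to-mCherry geometric-mean ratio by flow cytometry, normalized to three DMSO controls, after 5 h drug exposure. Cells used were HEK293T–Cas9 expressing the dual-colour cyclin K–eGFP degradation reporter.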

[2] = Supplementary Table 2, read-out: TR-FRET EC50 TR-FRET
[3] = compound concentration 79.2001 nM
[4] = compound concentration 158.4 nM
[5] = compound concentration 309.6 nM
[6] = compound concentration 626.401 nM
[7] = compound concentration 1252.8 nM
[8] = compound concentration 9936.01 nM
[9] = compound concentration 20016 nM
[10] = sheet MOESM7, read-out: log TR-FRET EC50 (converted)
[11] = Supplementary Table 2, HEK293T cycK-eGFP reporter, 5 h, read-out: Cellular assays DC50
[12] = compound concentration 0.468 nM
[13] = compound concentration 7.92001 nM
[14] = compound concentration 15.84 nM
[15] = compound concentration 30.96 nM
[16] = compound concentration 62.6401 nM
[17] = compound concentration 125.28 nM
[18] = compound concentration 244.8 nM
[19] = compound concentration 993.601 nM
[20] = compound concentration 2001.6 nM
[21] = in vitro complex formation, 50 nM CDK12–cyclin K, 100 nM DDB1, text and figures, read-out: TR-FRET EC50
[22] = source data sheet correlations, read-out: TR-FRET EC50
[23] = source data sheet correlations, read-out: DC50

T1 sequence (Q9NYV4 713-1052 K965R): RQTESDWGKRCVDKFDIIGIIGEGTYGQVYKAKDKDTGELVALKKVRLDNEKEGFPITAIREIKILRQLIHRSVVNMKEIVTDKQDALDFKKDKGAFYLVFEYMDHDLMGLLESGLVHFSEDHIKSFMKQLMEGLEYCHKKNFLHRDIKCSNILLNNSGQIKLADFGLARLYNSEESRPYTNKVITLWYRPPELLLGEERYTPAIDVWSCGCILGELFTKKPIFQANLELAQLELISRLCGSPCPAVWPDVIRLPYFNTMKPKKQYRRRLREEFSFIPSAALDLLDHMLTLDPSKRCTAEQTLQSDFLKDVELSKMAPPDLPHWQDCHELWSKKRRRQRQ
T1 sequence (O75909 1-267 partner): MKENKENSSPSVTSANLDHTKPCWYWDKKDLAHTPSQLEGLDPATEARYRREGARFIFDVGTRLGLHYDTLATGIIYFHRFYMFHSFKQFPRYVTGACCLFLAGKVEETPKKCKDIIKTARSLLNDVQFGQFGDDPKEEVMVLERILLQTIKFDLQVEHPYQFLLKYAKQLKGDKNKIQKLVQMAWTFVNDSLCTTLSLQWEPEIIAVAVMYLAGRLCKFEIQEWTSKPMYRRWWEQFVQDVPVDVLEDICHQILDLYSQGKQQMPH
T1 sequence (Q16531 whole entry): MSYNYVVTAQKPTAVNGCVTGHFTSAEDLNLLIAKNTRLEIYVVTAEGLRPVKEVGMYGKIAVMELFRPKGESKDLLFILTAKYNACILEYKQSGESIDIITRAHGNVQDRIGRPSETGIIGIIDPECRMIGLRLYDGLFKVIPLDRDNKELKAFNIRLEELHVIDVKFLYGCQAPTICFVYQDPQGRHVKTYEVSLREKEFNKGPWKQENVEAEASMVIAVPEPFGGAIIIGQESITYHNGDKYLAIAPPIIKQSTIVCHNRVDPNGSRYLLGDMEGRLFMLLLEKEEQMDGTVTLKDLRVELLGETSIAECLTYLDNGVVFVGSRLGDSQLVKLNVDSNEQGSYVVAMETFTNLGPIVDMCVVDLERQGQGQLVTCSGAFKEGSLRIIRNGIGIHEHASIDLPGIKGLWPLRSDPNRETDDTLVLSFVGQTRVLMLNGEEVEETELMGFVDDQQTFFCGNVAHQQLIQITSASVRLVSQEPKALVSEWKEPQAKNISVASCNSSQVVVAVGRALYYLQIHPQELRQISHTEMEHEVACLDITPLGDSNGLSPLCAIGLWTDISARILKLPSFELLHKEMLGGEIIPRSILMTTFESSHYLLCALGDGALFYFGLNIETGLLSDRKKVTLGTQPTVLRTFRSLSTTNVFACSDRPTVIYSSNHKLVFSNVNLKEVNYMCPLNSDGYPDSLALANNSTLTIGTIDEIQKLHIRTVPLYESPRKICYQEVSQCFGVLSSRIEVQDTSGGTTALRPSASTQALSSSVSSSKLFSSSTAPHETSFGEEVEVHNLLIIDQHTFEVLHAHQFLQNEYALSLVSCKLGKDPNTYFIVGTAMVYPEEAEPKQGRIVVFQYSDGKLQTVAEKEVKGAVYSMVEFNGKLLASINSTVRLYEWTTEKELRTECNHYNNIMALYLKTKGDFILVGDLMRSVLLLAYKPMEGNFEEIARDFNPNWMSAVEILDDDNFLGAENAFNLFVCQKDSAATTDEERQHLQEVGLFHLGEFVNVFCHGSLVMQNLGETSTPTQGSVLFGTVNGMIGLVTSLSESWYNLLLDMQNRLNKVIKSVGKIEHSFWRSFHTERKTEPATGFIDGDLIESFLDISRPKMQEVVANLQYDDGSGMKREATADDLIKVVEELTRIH

| Compound | EC50 (CDK12–cyclin K and DDB1; [2]) | fold lower affinity than DS11 (CDK12–cyclin K and DDB1) | EC50 (CDK12–cyclin K and DDB1; [10]) | EC50 (HEK293T cells) | Toxicity rescue (HEK293T cells) | DC50 [1, 11] | TR-FRET signal at compound concentration (CDK12–cyclin K and DDB1; [12]) | TR-FRET signal at compound concentration (CDK12–cyclin K and DDB1; compound concentration 2.16 nM) | TR-FRET signal at compound concentration (CDK12–cyclin K and DDB1; compound concentration 3.6 nM) | TR-FRET signal at compound concentration (CDK12–cyclin K and DDB1; [13]) | TR-FRET signal at compound concentration (CDK12–cyclin K and DDB1; [14]) | TR-FRET signal at compound concentration (CDK12–cyclin K and DDB1; [15]) | TR-FRET signal at compound concentration (CDK12–cyclin K and DDB1; [16]) | TR-FRET signal at compound concentration (CDK12–cyclin K and DDB1; [17]) | TR-FRET signal at compound concentration (CDK12–cyclin K and DDB1; [18]) | TR-FRET signal at compound concentration (CDK12–cyclin K and DDB1; [19]) | TR-FRET signal at compound concentration (CDK12–cyclin K and DDB1; [20]) | EC50 (CDK12–cyclin K and DDB1; [21]) | EC50 (CDK12–cyclin K and DDB1; [22]) | DC50 [1, 23] | other results |
| --- | --- | --- | --- | --- | --- | --- | --- | --- | --- | --- | --- | --- | --- | --- | --- | --- | --- | --- | --- | --- | --- |
| CC[C@H](CO)Nc1nc(NCCCC2CCCCC2)c2ncn(C(C)C)c2n1 [DS32] | 676 nM | ten-fold | 676 nM | > 10000 nM | 0% | > 10000 nM |  |  |  |  |  |  |  |  |  |  |  |  |  |  | TR-FRET signal, individual replicate (CDK12–cyclin K and DDB1; compound concentration 4.68 nM): 0.2147 and 0.2508; TR-FRET signal, individual replicate (CDK12–cyclin K and DDB1; compound concentration 21.6 nM): 0.2391 and 0.2736; TR-FRET signal, individual replicate (CDK12–cyclin K and DDB1; compound concentration 36 nM): 0.287 and 0.3299; TR-FRET signal, individual replicate (CDK12–cyclin K and DDB1; [3]): 0.3607 and 0.4271; TR-FRET signal, individual replicate (CDK12–cyclin K and DDB1; [4]): 0.4885 and 0.5801; TR-FRET signal, individual replicate (CDK12–cyclin K and DDB1; [5]): 0.7088 and 0.8235; TR-FRET signal, individual replicate (CDK12–cyclin K and DDB1; [6]): 1.016 and 1.206; TR-FRET signal, individual replicate (CDK12–cyclin K and DDB1; [7]): 1.37 and 1.584; TR-FRET signal, individual replicate (CDK12–cyclin K and DDB1; compound concentration 2448 nM): 1.698 and 1.9826; TR-FRET signal, individual replicate (CDK12–cyclin K and DDB1; [8]): 1.942 and 2.207; TR-FRET signal, individual replicate (CDK12–cyclin K and DDB1; [9]): 1.955 and 2.01 |
| CCc1cccc(CCCNc2nc(N[C@H](CC)CO)nc3c2ncn3C(C)C)c1 [DS67] |  |  | 30.5 nM | 517 nM | 819% |  | 0.3354 and 0.3368 | 0.4163 and 0.4021 | 0.5886 and 0.5847 | 0.9073 and 0.903 | 1.493 and 1.552 | 2.297 and 2.228 | 3.049 and 3.013 | 3.561 and 3.406 | 3.933 and 3.877 | 4.034 and 4.0558 | 4.271 and 4.04 | 31 ± 1 nM | 30.5 nM | 219 nM |  |
| CC[C@H](CO)Nc1nc(NCc2ccc(-c3ccc(C)s3)cc2)c2ncn(C(C)C)c2n1 [DS25] | 15 nM |  |  | 267 nM | 795% | 90 nM | 0.2617 and 0.2677 | 0.4243 and 0.428 | 0.7393 and 0.7415 | 1.2835 and 1.267 | 1.9468 and 1.95 | 2.593 and 2.662 | 3.101 and 3.186 | 3.361 and 3.544 | 3.469 and 3.727 | 3.278 and 3.742 | 3.339 and 3.592 | 15 ± 1 nM |  |  |  |
| CC[C@H](CO)Nc1nc(NCc2ccc(-c3ccccn3)c(=O)[nH]2)c2ncn(C(C)C)c2n1 [WX3] |  |  | 21.4 nM | 179 nM | 954% |  | 0.2972 and 0.3391 | 0.4654 and 0.4243 | 0.6432 and 0.6311 | 1.023 and 1.017 | 1.68 and 1.67 | 2.537 and 2.526 | 3.223 and 3.119 | 3.664 and 3.458 | 3.773 and 3.684 | 3.764 and 3.722 | 3.801 and 3.784 | 21 ± 1 nM | 21.4 nM | 23 nM |  |
| CC[C@H](CO)Nc1nc(NCCc2ccccc2)c2ncn(C(C)C)c2n1 [DS31] |  | 12-22 fold |  | > 10000 nM | 0% | > 10000 nM |  |  |  |  |  |  |  |  |  |  |  | 1230 ± 134 nM |  |  | TR-FRET signal at compound concentration (CDK12–cyclin K and DDB1; compound concentration 4.68 nM): 0.211 and 0.2282; TR-FRET signal at compound concentration (CDK12–cyclin K and DDB1; compound concentration 21.6 nM): 0.2112 and 0.2225; TR-FRET signal at compound concentration (CDK12–cyclin K and DDB1; compound concentration 36 nM): 0.2194 and 0.2418; TR-FRET signal at compound concentration (CDK12–cyclin K and DDB1; [3]): 0.2283 and 0.2565; TR-FRET signal at compound concentration (CDK12–cyclin K and DDB1; [4]): 0.2533 and 0.2816; TR-FRET signal at compound concentration (CDK12–cyclin K and DDB1; [5]): 0.2963 and 0.3231; TR-FRET signal at compound concentration (CDK12–cyclin K and DDB1; [6]): 0.3477 and 0.3849; TR-FRET signal at compound concentration (CDK12–cyclin K and DDB1; [7]): 0.4331 and 0.4555; TR-FRET signal at compound concentration (CDK12–cyclin K and DDB1; compound concentration 2448 nM): 0.5457 and 0.5736; TR-FRET signal at compound concentration (CDK12–cyclin K and DDB1; [8]): 0.6887 and 0.7282; TR-FRET signal at compound concentration (CDK12–cyclin K and DDB1; [9]): 0.6557 and 0.645 |
